Measured values taken from PubChem BioAssay AID1963441 (Molecular Pharmacology Branch, DTP, NCI, 2024).

Test system: NCI-H1876 complex spheroid growth, % test/control
Assay: Anticancer human tumor NCI-H1876 cell line growth inhibition [Asc];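 also: compound exposure lasted 7 days starting three days after seeding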;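 as to viability, T/C: 100% = DMSO vehicle control wells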
Conditions: for IC50: curve of first compound; for viability, T/C: stronger effect = lower value
Outline: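 Stromal components (HUVEC and hMSC) are co-assembled with the cancer cells into multicellular spheroids. Drugs are then added singly or paired, at concentrations falling by half-log increments from a clinically achievable maximum, capped at 10 microM without known Cmax.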

Compound: O=C(c1cc(Cc2n[nH]c(=O)c3ccccc23)ccc1F)N1CCN(C(=O)C2CC2)CC1 + Cc1c(S(C)(=O)=O)c(-c2cc(F)cc(N3CCN(c4ccc(NS(=O)(=O)c5ccc(NC(CCN6CCC(C(=O)OCCCP(=O)(O)O)CC6)CSc6ccccc6)c(S(=O)(=O)C(F)(F)F)c5)cc4)CC3)c2)c(-c2ccc(Cl)cc2)n1C(C)C
- IC50 (second compound 0.0316 µM): > 10 µM
- IC50 (second compound 0.1 µM): > 10 µM
- IC50 (second compound 0.316 µM): > 10 µM
- IC50 (second compound 1 µM): 9.96 µM
- IC50 (second compound 3.16 µM): 8.47 µM
- IC50 (second compound 10 µM): 7.79 µM
- viability, T/C (second compound 0.0316 µM, first compound 0.0316 µM): 99.6%
- viability, T/C (second compound 0.0316 µM, first compound 0.1 µM): 99.1%
- viability, T/C (second compound 0.0316 µM, first compound 0.316 µM): 92.8%
- viability, T/C (second compound 0.0316 µM, first compound 1 µM): 101%
- viability, T/C (second compound 0.0316 µM, first compound 3.16 µM): 97.2%
- viability, T/C (second compound 0.0316 µM, first compound 10 µM): 74%
- viability, T/C (second compound 0.1 µM, first compound 0.0316 µM): 100%
- viability, T/C (second compound 0.1 µM, first compound 0.1 µM): 90.9%
- viability, T/C (second compound 0.1 µM, first compound 0.316 µM): 98.2%
- viability, T/C (second compound 0.1 µM, first compound 1 µM): 96.2%
- viability, T/C (second compound 0.1 µM, first compound 3.16 µM): 95.9%
- viability, T/C (second compound 0.1 µM, first compound 10 µM): 73.6%
- viability, T/C (second compound 0.316 µM, first compound 0.0316 µM): 90.2%
- viability, T/C (second compound 0.316 µM, first compound 0.1 µM): 96.7%
- viability, T/C (second compound 0.316 µM, first compound 0.316 µM): 93.5%
- viability, T/C (second compound 0.316 µM, first compound 1 µM): 97.9%
- viability, T/C (second compound 0.316 µM, first compound 3.16 µM): 96%
- viability, T/C (second compound 0.316 µM, first compound 10 µM): 61.2%
- viability, T/C (second compound 1 µM, first compound 0.0316 µM): 111%
- viability, T/C (second compound 1 µM, first compound 0.1 µM): 97.7%
- viability, T/C (second compound 1 µM, first compound 0.316 µM): 90.1%
- viability, T/C (second compound 1 µM, first compound 1 µM): 102%
- viability, T/C (second compound 1 µM, first compound 3.16 µM): 99.2%
- viability, T/C (second compound 1 µM, first compound 10 µM): 49.8%
- viability, T/C (second compound 3.16 µM, first compound 0.0316 µM): 101%
- viability, T/C (second compound 3.16 µM, first compound 0.1 µM): 94.5%
- viability, T/C (second compound 3.16 µM, first compound 0.316 µM): 97.1%
- viability, T/C (second compound 3.16 µM, first compound 1 µM): 96%
- viability, T/C (second compound 3.16 µM, first compound 3.16 µM): 86.8%
- viability, T/C (second compound 3.16 µM, first compound 10 µM): 43.6%
- viability, T/C (second compound 10 µM, first compound 0.0316 µM): 95.2%
- viability, T/C (second compound 10 µM, first compound 0.1 µM): 98.9%
- viability, T/C (second compound 10 µM, first compound 0.316 µM): 86.1%
- viability, T/C (second compound 10 µM, first compound 1 µM): 90.1%
- viability, T/C (second compound 10 µM, first compound 3.16 µM): 95.3%
- viability, T/C (second compound 10 µM, first compound 10 µM): 38.1%
